In publication PMC11279468, “Exploring a New Generation of Pyrimidine and Pyridine Derivatives as Anti-Influenza Agents Targeting the Polymerase PA–PB1 Subunits Interaction” (Pharmaceutics, 2024):

Tests used:
[1] = molecular target: PA–PB1 interaction (6His-PA(239–716) / GST-PB1(1–25)) (Influenza A virus, UniProt P03433); test: biochemical; type: binding
[2] = in vitro; conditions: dog
Procedure: The cytotoxicity of compounds was tested in MDCK cells using the 3-(4,5-dimethylthiazol-2-yl)-2,5-diphenyl tetrazolium bromide (MTT) method, as previously reported [32]. Briefly, MDCK cells (seeded at a density of 2 × 10^4 per well) were grown in 96-well plates for 24 h and then treated with serial dilutions of test compounds, or DMSO as a control, in DMEM supplemented with 10% FBS. After incubation at 37 °C for 48 h, 5 mg/mL of MTT (Sigma, Tokyo, Japan) in PBS was added into each well and incubated at 37 °C for a further 4 h. Successively, a solubilization solution was added to lyse the cells and incubated overnight at 37 °C. Finally, optical density was read at the wavelength of 570 nm on a microtiter plate reader (MultiSkan FC, ThermoFisher Scientific).

[3] = system: Influenza virus strain A/PR/8/34 (H1N1); test: microbe, parasite or virus in culture; conditions: unidentified influenza virus, MDCK, read-out: EC50 (PRA)

Structure (SMILES) | IC50 [1] [µM] | CC50 at 48 h [2] [µM] | EC50 [3] [µM] | melting point [°C] | activity as PA–PB1 disruptors (in words) [1]
COC(=O)[C@H](Cc1ccc(O)cc1)NC(=O)CSc1nc(-c2ccc(F)cc2)cc(-c2ccc(F)cc2)n1 [Compound 3g, Methyl (2-((4,6-bis(4-fluorophenyl)pyrimidin-2-yl)thio)acetyl)-L-tyrosinate] | > 200 | > 250 | > 100 |  | 
COC(=O)[C@H](Cc1ccc(O)cc1)NC(=O)CSc1cc(-c2ccccc2)cc(-c2ccc(F)cc2)n1 [Compound 3m, Methyl (2-((6-(4-fluorophenyl)-4-phenylpyridin-2-yl)thio)acetyl)-L-tyrosinate] | > 200 |  |  | 151 to 152 | 
COC(=O)[C@H](Cc1c[nH]cn1)NC(=O)CSc1nc(-c2ccc(F)cc2)cc(-c2ccc(F)cc2)n1 [Compound 3h, Methyl (2-((4,6-bis(4-fluorophenyl)pyrimidin-2-yl)thio)acetyl)-L-histidinate] | 108 ± 14 | > 250 | > 100 | 107 to 108 | 
Cc1cccc(NC(=O)CSc2nc(-c3ccc(F)cc3)cc(-c3ccc(Cl)cc3)n2)c1 [Compound 2e, 2-{[4-(4-Chlorophenyl)-6-(4-fluorophenyl)pyrimidin-2-yl]thio}-N-(m-tolyl)acetamide] | 125 ± 37 | 206 ± 12 | 29.5 ± 0.7 | 213 to 217 | 
Cc1cccc(NC(=O)CSc2nc(-c3ccc(F)cc3)cc(-c3cccc4ccccc34)n2)c1 [Compound 2h, 2-{[4-(4-Fluorophenyl)-6-(1-naphthyl)pyrimidin-2-yl]thio}-N-(3-methylphenyl)acetamide] | > 200 | > 250 | 14.8 ± 1.6 | 145 to 147 | lack of activity as PA–PB1 disruptors
CC[C@H](C)[C@H](NC(=O)CSc1nc(-c2ccccc2)cc(-c2ccc(F)cc2)n1)C(=O)OC [Compound 3b, Methyl (2-((4-(4-fluorophenyl)-6-phenylpyrimidin-2-yl)thio)acetyl)-L-isoleucinate] | > 200 | > 250 | > 100 | 94 to 95 | 
COC(=O)[C@H](Cc1ccc(O)cc1)NC(=O)CSc1cc(-c2ccccc2)cc(-c2ccccc2)n1 [Compound 3k, Methyl (2-((4,6-diphenylpyridin-2-yl)thio)acetyl)-L-tyrosinate] | > 200 |  |  | 111 to 112 | 
Cc1cccc(NC(=O)CSc2cc(-c3ccccc3)cc(Sc3ccccc3)n2)c1 [Compound 2m, 2-{[4-Phenyl-6-(phenylthio)pyridin-2-yl]thio}-N-(m-tolyl)acetamide] | 141 ± 44 | > 250 | 32.3 ± 3.2 | 122 to 123 | 
CC[C@H](C)[C@H](NC(=O)CSc1cc(-c2ccccc2)cc(-c2ccc(F)cc2)n1)C(=O)OC [Compound 3l, Methyl (2-((6-(4-fluorophenyl)-4-phenylpyridin-2-yl)thio)acetyl)-L-isoleucinate] | > 200 |  |  | 76 to 77 | 
CC[C@H](C)[C@H](NC(=O)CSc1cc(-c2ccccc2)cc(-c2ccccc2)n1)C(=O)OC [Compound 3j, Methyl (2-((4,6-diphenylpyridin-2-yl)thio)acetyl)-L-isoleucinate] | > 200 |  |  | 70 to 71 | 
COC(=O)[C@H](Cc1c[nH]cn1)NC(=O)CSc1cc(-c2ccccc2)cc(-c2ccc(F)cc2)n1 [Compound 3n, Methyl (2-((6-(4-fluorophenyl)-4-phenylpyridin-2-yl)thio)acetyl)-L-histidinate] | > 200 |  |  | 155 to 156 | 
COC(=O)[C@@H](NC(=O)CSc1cc(-c2ccccc2)cc(-c2ccccc2)n1)C(C)C [Compound 3i, Methyl (2-((4,6-diphenylpyridin-2-yl)thio)acetyl)-L-valinate] | > 200 |  |  | 63 to 64 | 
